Reference: patent US12171554B2, “Marker monitoring via a medical device” (Medtronic, Inc., priority 2017, dated 2024)

Assay: Fluorophore detection in interstitial fluid (ISF) of rats after IV or PO dosing, subcutaneous optical PMMA fiber and reader device
Conditions: rat, in vivo
Description: Study Protocol: The purpose of the study was to investigate in an acute or semi-chronic rat trial set-up if fluorophores are detectable in the ISF (InterStitial Fluid) when injected IV or given to the rat Per Oral (PO). Four rat subjects (Rat 001, Rat 002, Rat 003, and Rat 004) were included in the study. The procedure of the study was as follows: Rat subjects were Sprague Dawley rats, male, Diet Induced Obese (DIO). For each rat, the rat was anaesthesized, shaved and cleaned on the back for PMMA optical fiber insertion. A tail venous catheter was placed and two 250 um optical PMMA fibers were placed in the subcutaneous fat tissue of the DIO rat. The base and tape of the sensor unit was sutured to the skin.
For Rats 001 and 002, a reader device suitable for indocyanine green dye detection was mounted. [ . . . ] Rat 002 died during oral dosing while under anesthesia due to lack of swallowing reflex.
For Rats 003 and 004 reader devices suitable for Alexa Fluor 594™ (AF594) detection were mounted. Recording began using RF data transfer (GST protocol, MDT Diabetes). A first IV injection of 0.01 mg AF594 was injected (1 mL into tail vein). Rise and decay of fluorescence was observed before a second injection of 1 mL of 0.01 mg AF594 into the tail vein. Anesthesia then was removed and the rat was placed into a cage. […]

With `CC1(C)C(/C=C/C=C/C=C/C=C2\N(CCCCS(=O)(=O)O)c3ccc4ccccc4c3C2(C)C)=[N+](CCCCS(=O)(=O)[O-])c2ccc3ccccc3c21` [Indo Cyanine Green] the “clearance from the ISF after IV dosing” value was “relatively fast clearance” and the “signal in ISF after IV dosing” value was “distinct signals”.
